# Laboratory results: patent publication US6476051B2, “Antipsychotic heterocycle compounds” (Bristol-Myers Squibb Company, priority 1999, dated 2002)
# Structures can show the parent of a compound that is named as a salt. Where two headings read alike, the source gives them in different places.
# How the values were obtained:
# [1] = biological target: T1, recombinant human dopamine D2L receptors (Homo sapiens, UniProt P14416); experiment: Dopamine binding protocol ([3H]-spiperone binding, HEK-D2L cell membranes)
# T1 construct: expressed in transfected cells; host or cells: HEK-293 (HEK-D2L cells), membrane homogenates
# T1 sequence (P14416 whole entry): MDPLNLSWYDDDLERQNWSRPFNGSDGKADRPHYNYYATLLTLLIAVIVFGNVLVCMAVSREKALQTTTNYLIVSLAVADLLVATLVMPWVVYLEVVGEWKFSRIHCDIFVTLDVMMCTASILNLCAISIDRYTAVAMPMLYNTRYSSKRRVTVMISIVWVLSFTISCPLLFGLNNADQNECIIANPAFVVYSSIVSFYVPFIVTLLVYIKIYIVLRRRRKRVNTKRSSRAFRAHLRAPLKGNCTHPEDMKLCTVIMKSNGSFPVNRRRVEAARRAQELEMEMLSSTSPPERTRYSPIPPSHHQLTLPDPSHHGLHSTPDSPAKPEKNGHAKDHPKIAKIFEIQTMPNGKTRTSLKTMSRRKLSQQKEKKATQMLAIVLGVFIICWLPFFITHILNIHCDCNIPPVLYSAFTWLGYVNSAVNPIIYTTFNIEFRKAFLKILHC
# Method: Like many clinically effective antipsychotic agents, the compounds of Formula I also are antagonists at the human D2L receptor as determined by [^3H]-spiperone binding studies using human D2L receptors stably expressed in HEK-293 cells.
# HEK-293 cells that stably express recombinant human dopamine D2L receptors (HEK-D2L cells) were grown at 37° C. in 5% CO2 as a monolayer in medium consisting of EMEM supplemented with 10% fetal bovine serum and G418 sulfate (500 μg/ml). To prepare membranes for radioligand binding experiments, cells were rinsed twice with phosphate-buffered saline (138 mM NaCl, 4.1 mM KCl, 5.1 mM Na2PO4, 1.5 mM […] 11.1 mM glucose, pH 7.4), and incubated for 5-10 min. at 4° C. in hypotonic lysis buffer consisting of 10 mM Tris (pH 7.4) and 5 mM EDTA. Cells were transferred from plates to polypropylene tubes (16×100 mm), homogenized and centrifuged at 32,000×g for 20 min. Following centrifugation, pellets were resuspended by homogenization in buffer consisting of 50 mM Tris (pH 7.7 at 25° C.) and 1 mM EDTA. Homogenates were stored at −80° C. until needed. On the day of an experiment, homogenates were thawed then centrifuged at 32,000×g for 20 min. Following centrifugation, supernatants were discarded and pellets were resuspended in assay buffer consisting of 50 mM Tris (pH 7.4 at 25° C.), 1 mM EDTA and 6 mM MgCl2. Membrane homogenates (˜5 μg) were incubated with 150 pM [^3H]-spiperone (Amersham Life Science) and increasing concentrations of test compounds for 1.5 hours at 22° C. in a total volume of 400 μl. Reactions were stopped by addition of ice-cold assay buffer and filtration over glass fiber filters (Whatman GFB, pre-soaked in 0.05% polyethylenimine) using a microtitre format Brandel cell harvester. Filters were washed with 3 ml of ice-cold assay buffer. Non-specific binding was defined with 2 μM (+)butaclamol. Ki values were calculated using the method of Cheng and Prusoff (1973). Protein concentrations were determined by the method of Bradford (1976) with BSA as a standard.
# Test data IC50 values lower than 250 nM are considered to reflect affinity for dopamine D2L receptors.
# [2] = biological target: T2, human serotonin transporters (Homo sapiens, UniProt P31645); experiment: Serotonin transporter binding assay ([3H]-citalopram binding, HEK-hSERT cell membranes)
# T2 construct: expressed in transfected cells; host or cells: HEK-293 (HEK-hSERT cells), membrane homogenates
# T2 sequence (P31645 whole entry): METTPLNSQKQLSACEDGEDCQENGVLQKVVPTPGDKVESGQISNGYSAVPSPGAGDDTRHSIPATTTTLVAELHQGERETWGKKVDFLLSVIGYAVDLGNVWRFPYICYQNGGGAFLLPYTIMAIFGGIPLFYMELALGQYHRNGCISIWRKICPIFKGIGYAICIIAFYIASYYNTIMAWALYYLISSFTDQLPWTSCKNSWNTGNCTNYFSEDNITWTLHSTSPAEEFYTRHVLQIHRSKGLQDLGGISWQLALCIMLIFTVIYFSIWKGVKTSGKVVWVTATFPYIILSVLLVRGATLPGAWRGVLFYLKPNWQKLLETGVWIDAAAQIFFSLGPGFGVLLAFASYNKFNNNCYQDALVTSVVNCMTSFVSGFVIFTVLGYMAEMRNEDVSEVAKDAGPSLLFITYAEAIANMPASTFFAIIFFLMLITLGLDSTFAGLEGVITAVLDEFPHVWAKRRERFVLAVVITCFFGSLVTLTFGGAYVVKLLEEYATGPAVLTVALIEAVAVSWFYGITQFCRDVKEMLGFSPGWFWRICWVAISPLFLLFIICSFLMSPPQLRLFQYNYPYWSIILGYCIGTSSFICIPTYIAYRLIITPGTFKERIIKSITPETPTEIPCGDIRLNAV
# Description: The compounds of Formula I bind potently to the human 5-HT transporter and inhibit the re-uptake of endogenous serotonin. Selective serotonin reuptake inhibitors (SSRIs) are effective for the treatment of mental depression and have been reported to be useful for treating chronic pain (see: R. W. Fuller, Pharmacologic Modification of Serotonergic Function: Drugs for the Study and Treatment of Psychiatric and Other Disorders,” J. Clin. Psychiatry, 47:4 (Suppl.) April 1986, pp. 4-8). Compounds of the present invention are also envisioned to be useful for treating psychosis, acute mania, mild anxiety states or depression with secondary psychotic episodes. The present compounds are also envisioned to be useful in treating obsessive-compulsive disorders, feeding disorders, anxiety disorders and panic disorders.
# HEK-293 cells that stably express human serotonin transporters (HEK-hSERT cells) were grown at 37° C. in 5% CO2 as a monolayer in medium consisting of EMEM supplemented with 10% fetal bovine serum and G418 sulfate (500 μg/ml). To prepare membranes for radioligand binding experiments, cells were rinsed twice with phosphate-buffered saline (138 mM NaCl, 4.1 mM KCl, 5.1 mM Na2PO4, 1.5 mM […], 11.1 mM glucose, pH 7.4). Cells were transferred from plates to polypropylene tubes (16×100 mm), centrifuged at 1,200×g for 5 min and were frozen at −80° C. until assay. Following centrifugation, pellets were resuspended by homogenization in buffer consisting of 50 mM Tris (pH 7.7 at 25° C.), 120 mM NaCl and 5 mM KCl and then centrifuged at 32,000×g for 10 min. Following centrifugation, supernatants were discarded and pellets were resuspended in buffer consisting of 50 mM Tris (pH 7.4 at 25° C.), 150 mM NaCl and 5 mM KCl. Membrane homogenates (200 μl/plate) were incubated with 1 nM [^3H]-citalopram (specific activity=85 Ci/mmol) and increasing concentrations of test compounds for 1 hour at 25° C. in a total volume of 250 μl. The assay buffer consisted of 50 mM Tris (pH 7.4 at 25° C.), 120 mM NaCl and 5 mM KCl (pH 7.4 with conc. HCl). Plates were incubated for 1 hour at 25° C., then filtered through 0.5% PEI treated Whatman GF/B filters using a Brandel cell harvester. Filters were washed three times with 3 ml of ice-cold tris wash buffer. Non-specific binding was defined with 10 μM fluoxetine. Amount of radioligand bound in the presence and absence of competitor was analyzed by plotting (−)log drug concentration versus the amount of radioligand specifically bound. The midpoint of the displacement curve (IC50, nM), signifies the potency. Ki values were calculated using the method of Cheng and Prusoff (1973).
# Substances which inhibit the re-uptake of serotonin are recognized to be effective antidepressants (Selective Serotonin Reuptake Inhibitors. Edited by J P Feighner and W F Boyer, Chichester, England. John Wiley & Sons, 1991, pp 89-108). Test data IC50 values lower than 250 nM are considered to reflect activity as an inhibitor of serotonin re-uptake.
# [3] = [3H]-spiperone, HEK-D2L membranes, read-out: dopamine D2L ligands with Ki
# [4] = [3H]-citalopram, HEK-hSERT membranes, read-out: inhibit the re-uptake of serotonin with Ki
"Ki [1, 3]","Ki [2, 4]",SMILES,melting point,Ki [1],Ki [2]
–,–,"Cc1nc2cc(OCCCN3CC=C(c4c[nH]c5ccc(C#N)cc45)CC3)ccc2s1 (as salt: HCl) [Example 12, 5-{3-[4-(5-cyanoindol-3-yl)-1,2,5,6-tetrahydropyrid-1-yl]propoxy}-2-methylbenzothiazole]",263 to 265 °C,–,–
–,–,"Cc1nc2cc(OCCCN3CC=C(c4c[nH]c5c(Br)cccc45)CC3)ccc2s1 [Example 28, 5-{3-[4-(7-bromoindol-3-yl)-1,2,5,6-tetrahydropyrid-1-yl]propoxy}-2-methylbenzothiazole]",–,< 100 nM,< 100 nM
–,–,"Cc1nc2cc(OCCCCN3CC=C(c4c[nH]c5c(Br)cccc45)CC3)ccc2s1 [Example 29, 5-{4-[4-(7-bromoindol-3-yl)1,2,5,6-tetrahydropyrid-1-yl]butoxy}-2-methylbenzothiazole]",–,< 100 nM,< 100 nM
–,–,"Cc1nc2cc(OCCCCCN3CC=C(c4c[nH]c5c(Br)cccc45)CC3)ccc2s1 [Example 30, 5-{5-[4-(7-bromoindol-3-yl)-1,2,5,6-tetrahydropyrid-1-yl]pentoxy}-2-methylbenzothiazole]",–,< 100 nM,< 100 nM
–,–,"COc1ccc2[nH]cc(C3=CCN(CCCOc4ccc5sc(C)nc5c4)CC3)c2c1 [Example 31, 5-{3-[4-(5-methoxyindol-3-yl)-1,2,5,6-tetrahydropyrid-1-yl]propoxy}-2-methylbenzothiazole]",–,< 100 nM,< 100 nM
–,–,"COc1ccc2[nH]cc(C3=CCN(CCCCCOc4ccc5sc(C)nc5c4)CC3)c2c1 [Example 33, 5-{5-[4-(5-methoxyindol-3-yl)-1,2,5,6-tetrahydropyrid-1-yl]pentoxy}-2-methylbenzothiazole]",–,< 100 nM,< 100 nM
–,–,"Cc1nc2cc(OCCCN3CC=C(c4c[nH]c5ccc(F)cc45)CC3)ccc2s1 [Example 34, 5-{3-[4-(5-fluoroindol-3-yl)-1,2,5,6-tetrahydropyrid-1-yl]propoxy}-2-methylbenzothiazole]",–,< 100 nM,< 100 nM
–,–,"Cc1nc2cc(OCCCN3CC=C(c4c[nH]c5ccc(Br)cc45)CC3)ccc2s1 [Example 36, 5-{3-[4-(5-bromoindol-3-yl)-1,2,5,6-tetrahydropyrid-1-yl]propoxy}-2-methylbenzothiazole]",–,< 100 nM,< 100 nM
–,–,"Cc1nc2cc(OCCCCN3CC=C(c4c[nH]c5ccc(C#N)cc45)CC3)ccc2s1 [Example 38, 5-{4-[4-(5-cyanoindol-3-yl)-1,2,5,6-tetrahydropyrid-1-yl]butoxy}-2-methylbenzothiazole]",–,< 100 nM,< 100 nM
< 100 nM,< 100 nM,"Cc1nc2cc(OCCCN3CCC(Cc4cccc5c4OCO5)CC3)ccc2s1 [Example 41, 5-{3-[4-(2H-benzo[d]1,3-dioxolan-4-ylmethyl)piperidinyl]propoxy}-2-methylbenzothiazole]",–,–,–
< 100 nM,< 100 nM,"Cc1nc2cc(OCCCN3CCC(Cc4cc(F)ccc4Br)CC3)ccc2s1 [Example 44, 5-(3-{4-[(2-bromo-5-fluorophenyl)methyl]piperidinyl}propoxy)-2-methylbenzothiazole]",–,–,–
< 100 nM,< 100 nM,"Cc1nc2cc(OCCCN3CCC(Cc4cc(F)ccc4F)CC3)ccc2s1 [Example 45, 5-(3-{4-[(2,-5-difluorophenyl)methyl]piperidinyl}propoxy)-2-methylbenzothiazole]",–,–,–
